Patent publication US10654828B2 (NOVARTIS AG, priority 2017, dated 2020)

How the values were obtained:
FoxO3a = FoxO3a inhibition: GFP-FoxO3a nuclear to cytoplasmic translocation reporter assay; format: cell-based; conditions: Homo sapiens, U2OS, 0.5 h, U2OS GFP-FoxO3a H212R cells, serum starved overnight, compound 30 minutes; ratio of nuclear to cytosolic GFP intensity; DMSO control 0%; read-out: FoxO AC50
Outline: (§1)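 Serum-starved U2OS cells expressing GFP-FoxO3a H212R treated with compounds 30 min, fixed, imaged. FoxO3a: nuclear/cytosolic GFP ratio, %. AKT: total cellular phospho-AKT (Ser473) antibody staining intensity, %. DMSO set as 0% activity.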

AKT = AKT activation: Phospho-AKT (Ser473) antibody staining in reporter cells; format: cell-based; conditions: Homo sapiens, U2OS, 0.5 h, U2OS GFP-FoxO3a H212R cells, serum starved overnight, compound 30 minutes; total cellular intensity of Phospho-AKT (Ser473) staining; DMSO control 0%
Outline: as §1

Row | Structure (SMILES) | AC50 (FoxO3a) | AC50 (AKT)
1 | Cc1cc(C(N)=O)nn1-c1ccc2c(ccn2Cc2ccc(-c3ccc(N)cc3)cc2)c1 [Example 1-26, 1-(1-((4′-amino-[1,1′-biphenyl]-4-yl)methyl)-1H-indol-5-yl)-5-methyl-1H-pyrazole-3-carboxamide] | 129 nM | > 10000 nM
2 | Cc1cc(C(N)=O)nn1-c1ccc2c(ccn2Cc2ccc([C@@]34C[C@@H]3CN(C)C4)cc2)c1 [Example 33, 5-methyl-1-(1-(4-((1R,5S)-3-methyl-3-azabicyclo[3.1.0]hexan-1-yl)benzyl)-1H-indol-5-yl)-1H-pyrazole-3-carboxamide] | 383 nM | 2810 nM
3 | COc1ncc(-c2ccc(Cn3ccc4cc(-n5nc(C(N)=O)cc5C)ccc43)cc2)cn1 [Example 1-28, 1-(1-(4-(2-methoxypyrimidin-5-yl)benzyl)-1H-indol-5-yl)-5-methyl-1H-pyrazole-3-carboxamide] | 223 nM | 1170 nM
4 | Cc1cc(C(N)=O)nn1-c1ccc2c(ccn2Cc2ccc(-c3ccc(N(C)C)nc3)cc2)c1 [Example 1-23, 1-(1-(4-(6-(dimethylamino)pyridin-3-yl)benzyl)-1H-indol-5-yl)-5-methyl-1H-pyrazole-3-carboxamide] | 93 nM | 293 nM
5 | Cc1cc(C(N)=O)nn1-c1ccc2c(ccn2Cc2ccc(-c3cnc4[nH]ccc4c3)cc2)c1 [Example 1-16, 1-(1-(4-(1H-pyrrolo[2,3-b]pyridin-5-yl)benzyl)-1H-indol-5-yl)-5-methyl-1H-pyrazole-3-carboxamide] | 147 nM | 451 nM
6 | Cc1cc(C(N)=O)nn1-c1ccc2c(ccn2Cc2ccc(C3CCN(C)CC3)cc2)c1 [Example 2-5, 5-methyl-1-(1-(4-(1-methylpiperidin-4-yl)benzyl)-1H-indol-5-yl)-1H-pyrazole-3-carboxamide] | 281 nM | 760 nM
7 | Cc1cc(C(N)=O)nn1-c1ccc2c(ccn2Cc2ccc(-c3ccc(CN4CCNCC4)cc3)cc2)c1 [Example 35, 5-methyl-1-(1-((4′-(piperazin-1-ylmethyl)-[1,1′-biphenyl]-4-yl)methyl)-1H-indol-5-yl)-1H-pyrazole-3-carboxamide] | 181 nM | 603 nM
8 | Cc1cc(C(N)=O)nn1-c1ccc2c(ccn2Cc2ccc(N3CCNCC3)cc2)c1 [Example 11-1, 5-methyl-1-(1-(4-(piperazin-1-yl)benzyl)-1H-indol-5-yl)-1H-pyrazole-3-carboxamide] | 4080 nM | > 10000 nM
9 | Cc1cc(C(N)=O)nn1-c1ccc2c(ccn2Cc2ccc(-c3ccc(CN4CCC[C@H]4CO)cc3)cc2)c1 [Example 34-1, (S)-1-(1-((4′-((2-(hydroxymethyl)pyrrolidin-1-yl)methyl)-[1,1′-biphenyl]-4-yl)methyl)-1H-indol-5-yl)-5-methyl-1H-pyrazole-3-carboxamide] | 119 nM | 184 nM
10 | Cc1cc(C(N)=O)nn1-c1ccc2c(ccn2Cc2ccc(-c3ccc(S(=O)(=O)CCO)cc3)cc2)c1 [Example 18, 1-(1-((4′-((2-hydroxyethyl)sulfonyl)-[1,1′-biphenyl]-4-yl)methyl)-1H-indol-5-yl)-5-methyl-1H-pyrazole-3-carboxamide] | 57 nM | 110 nM
11 | Cc1cc(C(N)=O)nn1-c1ccc2c(ccn2Cc2ccc(-c3cnc4c(c3)OCCN4C)cc2)c1 [Example 1-9, 5-methyl-1-(1-(4-(4-methyl-3,4-dihydro-2H-pyrido[3,2-b][1,4]oxazin-7-yl)benzyl)-1H-indol-5-yl)-1H-pyrazole-3-carboxamide] | 109 nM | 318 nM
12 | Cc1cc(C(N)=O)nn1-c1ccc2c(ccn2Cc2ccc(-c3ccc4cnn(C)c4c3)cc2)c1 [Example 1-22, 5-methyl-1-(1-(4-(1-methyl-1H-indazol-6-yl)benzyl)-1H-indol-5-yl)-1H-pyrazole-3-carboxamide] | 167 nM | 507 nM
13 | Cc1cc(C(N)=O)nn1-c1ccc2c(ccn2Cc2ccc(C3CCC4(CC3)CN(C)C4)cc2)c1 [Example 16-4, 5-methyl-1-(1-(4-(2-methyl-2-azaspiro[3.5]nonan-7-yl)benzyl)-1H-indol-5-yl)-1H-pyrazole-3-carboxamide] | 186 nM | 756 nM
14 | Cc1cc(C(N)=O)nn1-c1ccc2c(ccn2Cc2ccc(-c3cccc(C(=O)N4CCN(C)CC4)c3)cc2)c1 [Example 1-12, 5-methyl-1-(1-((3′-(4-methylpiperazine-1-carbonyl)-[1,1′-biphenyl]-4-yl)methyl)-1H-indol-5-yl)-1H-pyrazole-3-carboxamide] | 124 nM | 346 nM
15 | Cc1cc(C(N)=O)nn1-c1ccc2c(ccn2Cc2ccc(-c3ccc(C(C)(C)O)nc3)cc2)c1 [Example 30-3, 1-(1-(4-(6-(2-hydroxypropan-2-yl)pyridin-3-yl)benzyl)-1H-indol-5-yl)-5-methyl-1H-pyrazole-3-carboxamide] | 126 nM | 572 nM
16 | Cc1cc(C(N)=O)nn1-c1ccc2c(ccn2Cc2ccc(-c3ccc4c(c3)CCNC4=O)cc2)c1 [Example 1-25, 5-methyl-1-(1-(4-(1-oxo-1,2,3,4-tetrahydroisoquinolin-6-yl)benzyl)-1H-indol-5-yl)-1H-pyrazole-3-carboxamide] | 56 nM | 197 nM
17 | Cc1cc(C(N)=O)nn1-c1ccc2c(ccn2Cc2ccc(-c3ccc(CN4CCC[C@@H]4CO)cc3)cc2)c1 [Example 34-2, (R)-1-(1-((4′-((2-(hydroxymethyl)pyrrolidin-1-yl)methyl)-[1,1′-biphenyl]-4-yl)methyl)-1H-indol-5-yl)-5-methyl-1H-pyrazole-3-carboxamide] | 42 nM | 3 nM
18 | Cc1cc(C(N)=O)nn1-c1ccc2c(c1)c(C1=CCOCC1)cn2Cc1ccc(-c2ccc(S(C)(=O)=O)cc2)cc1 [Example 19-1, 1-(3-(3,6-dihydro-2H-pyran-4-yl)-1-((4′-(methylsulfonyl)-[1,1′-biphenyl]-4-yl)methyl)-1H-indol-5-yl)-5-methyl-1H-pyrazole-3-carboxamide] | 52 nM | 81 nM
19 | Cc1cc(C(N)=O)nn1-c1ccc2c(ccn2Cc2ccc(-c3ccc(S(=O)(=O)CCN(C)C)cc3)cc2)c1 [Example 19-3, 1-(1-((4′-((2-(dimethylamino)ethyl)sulfonyl)-[1,1′-biphenyl]-4-yl)methyl)-1H-indol-5-yl)-5-methyl-1H-pyrazole-3-carboxamide] | 99 nM | 128 nM
20 | Cc1cc(C(N)=O)nn1-c1ccc2c(ccn2Cc2ccc(-c3ccc4c(c3)CC(=O)N4)cc2)c1 [Example 1-31, 5-methyl-1-(1-(4-(2-oxoindolin-5-yl)benzyl)-1H-indol-5-yl)-1H-pyrazole-3-carboxamide] | 55 nM | 138 nM
21 | Cc1cc(C(N)=O)nn1-c1ccc2c(ccn2Cc2ccc(C3CCN(C)CC3(C)C)cc2)c1 (centres unmarked) [Example 16-1, 5-methyl-1-(1-(4-(1,3,3-trimethylpiperidin-4-yl)benzyl)-1H-indol-5-yl)-1H-pyrazole-3-carboxamide] | 171 nM | 966 nM
22 | Cc1cc(C(N)=O)nn1-c1ccc2c(ccn2Cc2ccc(C3CCCN(C)CC3)cc2)c1 (single isomer, unassigned) [Example 29-1, 5-methyl-1-(1-(4-(1-methylazepan-4-yl)benzyl)-1H-indol-5-yl)-1H-pyrazole-3-carboxamide] | 483 nM | 1690 nM
